Experimental data reported in patent publication US9233111B2, “Pyrrolo pyrimidine derivatives” (NOVARTIS AG, priority 2011, dated 2016).

Columns and labels:
[1] = target: full-length human recombinant BTK (Homo sapiens (Human), UniProt Q06187); test: Inhibition of Btk enzymatic activity (biochemical enzyme assay, Caliper); conditions: 30° C., 60 minutes
Description: The inhibitory activity of the present compounds against Btk was assessed in a biochemical enzyme assay. Assay plates in 384 well format were prepared with 8-point serial dilutions for the test compounds on a Thermo CatX workstation equipped with a Innovadyne Nanodrop Express. The assay plates were prepared by addition of 50 nl per well of compound solution in 90% DMSO. The kinase reactions were started by stepwise addition of 4.5 μl per well of peptide/ATP-solution (4 μM FITC-Ahx-[…]-NH2, 164 μM ATP) in kinase buffer (50 mM HEPES, pH 7.5, 1 mM DTT, 0.02% Tween20, 0.02% BSA, 0.6% DMSO, 10 mM beta-glycerophosphate, and 10 μM sodium orthovanadate, 18 mM MgCl2, 1 mM MnCl2) and 4.5 μl per well of enzyme solution (6.4 nM full-length human recombinant BTK) in kinase buffer. Kinase reactions were incubated at 30° C. for 60 minutes and subsequently terminated by addition of 16 μl per well of stop solution (100 mM HEPES pH 7.5, 5% DMSO, 0.1% Caliper coating reagent, 10 mM EDTA, and 0.015% Brij35). Kinase reactions were analyzed on a Caliper LC3000 workstation by separating phosphorylated and unphosphorylated peptides and kinase activities were calculated from the amounts of newly formed phospho-peptide. Inhibition data were calculated by comparison to control reactions without enzyme (100% inhibition) and without inhibitors (0% inhibition). The concentration of inhibitor required for 50% inhibition (IC50) was calculated from the inhibition in response to inhibitor concentrations.

Btk [2] = target: Btk (Rattus norvegicus, UniProt Q5S255); test: Inhibition of Btk activity in blood: in vitro B cell activation assay (CD86) in rat whole blood; format: cell-based; conditions: Lewis rat whole blood diluted to 50%, anti-rat IgM + IL-4, CD86 on CD45RA positive B cells, 24 hours
Chain of Btk (Rattus norvegicus, UniProt Q5S255) (Q5S255 1-660): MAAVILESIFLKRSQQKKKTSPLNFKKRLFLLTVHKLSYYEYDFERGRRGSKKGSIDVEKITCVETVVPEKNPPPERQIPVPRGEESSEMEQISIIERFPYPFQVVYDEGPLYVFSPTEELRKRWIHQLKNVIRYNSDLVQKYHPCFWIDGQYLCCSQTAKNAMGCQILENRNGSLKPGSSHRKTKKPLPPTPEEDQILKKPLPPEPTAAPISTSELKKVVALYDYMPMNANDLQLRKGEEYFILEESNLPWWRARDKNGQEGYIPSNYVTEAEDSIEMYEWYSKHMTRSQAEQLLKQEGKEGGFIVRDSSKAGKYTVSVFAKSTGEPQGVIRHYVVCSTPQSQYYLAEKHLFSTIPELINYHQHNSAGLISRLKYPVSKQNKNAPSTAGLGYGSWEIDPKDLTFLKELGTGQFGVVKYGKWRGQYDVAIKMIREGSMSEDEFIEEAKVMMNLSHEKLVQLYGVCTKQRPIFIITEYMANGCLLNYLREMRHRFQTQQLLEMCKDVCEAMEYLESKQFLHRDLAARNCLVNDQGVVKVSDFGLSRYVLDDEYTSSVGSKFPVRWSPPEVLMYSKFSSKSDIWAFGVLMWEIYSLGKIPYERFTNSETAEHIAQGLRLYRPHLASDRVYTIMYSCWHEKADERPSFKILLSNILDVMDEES
Description: Alternatively, the inhibitory activity of the present compounds in blood was assessed in the following in vitro B cell activation assay. Whole blood was collected from the abdominal aorta of anaesthetized adult male Lewis rats and was anticoagulated with 100 U/ml sodium heparin. Blood was then diluted to 50% with high glucose DMEM (Amimed) supplemented with 100 U/ml penicillin, […] streptomycin, 2 mM L-glutamin, 50 mg/ml dextran 40 and 5% FCS (Fetaclone I, Gibco). Then, 190 μl prediluted blood was mixed in 96 well U-bottomed microtiter plates (Nunc) with 10 μl of serial dilutions of test compounds in DMSO. Cultures were incubated at 37° C., 5% CO2 for 1 hour, then 30 μl of rat IL-4 (Beckton-Dickinson, final concentration 5 ng/ml) and goat anti-rat IgM (Serotec, final concentration 15 ug/ml) were added and the cultures were incubated for 24 hours. Activation of B cells was measured by flow cytometry after staining for the B cell subset with PE-Cy5-labeled anti-ratCD45RA (Beckton-Dickinson) and for the activation marker CD86 (PE-labeled anti-rat CD86 (Beckton-Dickinson). All staining procedures were performed at RT for 30 min in the dark in 96-deep well V-bottomed microtiter plates (Corning) with BD Lysing Solution (Beckton-Dickinson). Cytometric data was acquired on a FACScalibur flow cytometer (BD Biosciences) and the subpopulation of lymphocytes were gated according to size and granularity and further analyzed for expression of CD45RA and the activation markers. Data for the inhibition of B cell activation were calculated from the percentage of cells positively stained for activation markers within the CD45RA positive population. Inhibition data were calculated by comparison to control cultures without anti-IgM and IL-4 (100% inhibition) and without inhibitors (0% inhibition). The concentration of inhibitor required for 50% inhibition (IC50) was calculated from the inhibition in response to inhibitor concentrations.

Btk [3] = target: Btk (Homo sapiens (Human), UniProt Q06187); test: Inhibition of cellular Btk activity: Btk-dependent FcG receptor-induced IL-8 secretion in differentiated THP1 cells; format: cell-based; conditions: IgG-stimulated IL-8 secretion, 24 hours
Chain of Btk (Homo sapiens (Human), UniProt Q06187) (Q06187 whole entry): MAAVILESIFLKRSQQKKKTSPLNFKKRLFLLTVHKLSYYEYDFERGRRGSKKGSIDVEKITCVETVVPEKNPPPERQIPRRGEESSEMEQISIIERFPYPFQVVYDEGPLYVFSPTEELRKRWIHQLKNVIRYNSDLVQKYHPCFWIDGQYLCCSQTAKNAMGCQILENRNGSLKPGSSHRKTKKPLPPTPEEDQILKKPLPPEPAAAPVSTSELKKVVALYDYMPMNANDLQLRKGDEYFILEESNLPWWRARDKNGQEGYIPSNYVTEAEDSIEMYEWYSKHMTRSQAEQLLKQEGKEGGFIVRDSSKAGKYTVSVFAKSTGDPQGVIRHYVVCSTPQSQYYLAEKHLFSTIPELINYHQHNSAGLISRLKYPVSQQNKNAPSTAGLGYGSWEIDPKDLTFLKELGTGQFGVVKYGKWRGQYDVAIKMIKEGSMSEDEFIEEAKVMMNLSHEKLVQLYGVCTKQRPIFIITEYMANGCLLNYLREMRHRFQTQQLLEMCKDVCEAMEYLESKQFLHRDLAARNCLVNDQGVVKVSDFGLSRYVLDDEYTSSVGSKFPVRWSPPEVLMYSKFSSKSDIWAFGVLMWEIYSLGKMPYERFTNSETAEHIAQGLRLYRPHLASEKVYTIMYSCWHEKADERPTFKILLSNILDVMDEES
Description: Alternatively, the present compounds might also be assessed for their capacity to inhibit Btk-dependent FcG receptor-induced IL-8 secretion in human cells. The human myeloid leukemia THP1 cell line (ATCC TIB202) was grown in RPMI 1640 medium supplemented with 10% FCS and 15 nM 1, 25-dihydroxy Vitamin D3 during 4 days before use to induced myeloid differentiation. A sufficient number of tissue-culture grade 384-well plates was coated with human IgG of unknown specificity by incubating overnight at 4° C. with 40 μl/well of a 50 μg/ml IgG solution in PBS. On the day of the experiment, plates were washed 5 times with 80 μl water on a Molecular Devices Aquamax DW4 plate washer. Solutions of the test compounds in 90% DMSO were added to each well on a Hamilton Microlab Star liquid handling station to 40 μl/well tissue culture medium and the total DMSO concentration was adjusted to 0.1%. Differentiated THP1 cells were then added in 40 μl/well to reach a final density of 5'000 cells/well in 80 μl culture medium. After 24 hours, IL-8 secretion was measured in the supernatant by the IL-8 HTRF assay following the protocol of the vendor (CisBio international). Inhibition data were calculated by comparison to control cultures without IgG stimulus enzyme (100% inhibition) and without inhibitors (0% inhibition). The concentration of inhibitor required for 50% inhibition (IC50) was calculated from the inhibition in response to inhibitor concentrations.

Chain of full-length human recombinant BTK (Q06187 whole entry): as above

IC50 [1] [nM]	IC50 (Btk [2]) [nM]	IC50 (Btk [3]) [nM]	Structure (SMILES)
4	72		Cc1c(NC(=O)c2ccc3c(c2)OCC3(C)C)cc(F)cc1-c1ncnc2[nH]c(C3=CCN(C(=O)N(C)C)CC3)cc12 [Example 2, 4-(4-{3-[(3,3-Dimethyl-2,3-dihydro-benzofuran-6-carbonyl)-amino]-5-fluoro-2-methyl-phenyl}-7H-pyrrolo[2′3-d]pyrimidin-6-yl)-3,6-dihydro-2H-pyridine-1-carboxylic acid dimethylamide]
5		27	Cc1c(NC(=O)c2cc3c(s2)CCC(C)C3)cc(F)cc1-c1ncnc2[nH]c(C3=CCN(C(=O)N(C)C)CC3)cc12 (stereo not shown) [Example 3, 4-(4-{5-Fluoro-2-methyl-3-[(5-methyl-4,5,6,7-tetrahydro-benzo[b]thiophene-2-carbonyl)-amino]-phenyl}-7H-pyrrolo[2′3-d]pyrimidin-6-yl)-3,6-dihydro-2H-pyridine-1-carboxylic acid dimethylamide]
2	112		Cc1c(NC(=O)c2ccc(C(C)(C)CO)cc2)cc(F)cc1-c1ncnc2[nH]c(C3=CCN(C(=O)N(C)C)CC3)cc12 [Example 6, 4-(4-{5-Fluoro-3-[4-(2-hydroxy-1,1-dimethyl-ethyl)-benzoylamino]-2-methyl-phenyl}-7H-pyrrolo[2,3-d]pyrimidin-6-yl)-3,6-dihydro-2H-pyridine-1-carboxylic acid dimethylamide]
2		69	CN(C)C(=O)N1CC=C(c2cc3c(-c4cccc(NC(=O)c5ccc(C(C)(C)O)cc5F)c4CO)ncnc3[nH]2)CC1 [Example 16, 4-(4-{3-[2-Fluoro-4-(1-hydroxy-1-methyl-ethyl)-benzoylamino]-2-hydroxymethyl-phenyl}-7H-pyrrolo[2,3-d]pyrimidin-6-yl)-3,6-dihydro-2H-pyridine-1-carboxylic acid dimethylamide]
1	100		CN(C)C(=O)N1CC=C(c2cc3c(-c4cccc(NC(=O)c5ccc(C6CC6)cc5)c4CO)ncnc3[nH]2)CC1 [Example 17, 4-{4-[3-(4-Cyclopropyl-benzoylamino)-2-hydroxymethyl-phenyl]-7H-pyrrolo[2,3-d]pyrimidin-6-yl}-3,6-dihydro-2H-pyridine-1-carboxylic acid dimethylamide]
7	414		Cc1c(NC(=O)c2ccc(C3CC3)cc2)cc(F)cc1-c1ncnc2[nH]c(C3=CCN(C(=O)CO)CC3)cc12 [Example 32, 4-Cyclopropyl-N-(5-fluoro-3-{6-[1-(2-hydroxy-actyl)-1,2,3,6-tetrahydro-pyridin-4-yl]-7H-pyrrolo[2,3-d]pyrimidin-4-yl}-2-methyl-phenyl)benzamide]
16	179		Cc1c(NC(=O)N2CC(OC(C)C)C2)cc(F)cc1-c1ncnc2[nH]c(C3=CCN(C(=O)N(C)C)CC3)cc12 [Example 58, 4-(4-{5-Fluoro-3-[(3-isopropoxy-azetidine-1-carbonyl)-amino]-2-methyl-phenyl}-7H-pyrrolo[2,3-d]pyrimidin-6-yl)-3,6-dihydro-2H-pyridine-1-carboxylic acid dimethylamide]
3			Cc1c(NC(=O)N2Cc3ccc(F)cc3C2)cc(F)cc1-c1ncnc2[nH]c(C3=CCN(C(=O)N(C)C)CC3)cc12 [Example 59, 5-Fluoro-1,3-dihydro-isoindole-2-carboxylic acid {3-[6-(1-dimethylcarbamoyl-1,2,3,6-tetrahydro-pyridin-4-yl)-7H-pyrrolo[2,3-d]pyrimidin-4-yl]-5-fluoro-2-methyl-phenyl}-amide]
8			Cc1c(NC(=O)N2CC(OC(C(F)(F)F)C(F)(F)F)C2)cc(F)cc1-c1ncnc2[nH]c(C3=CCN(C(=O)N(C)C)CC3)cc12 [Example 60, 4-[4-(5-Fluoro-2-methyl-3-{[3-(2,2,2-trifluoro-1-trifluoromethyl-ethoxy)-azetidine-1-carbonyl]-amino}-phenyl)-7H-pyrrolo[2,3-d]pyrimidin-6-yl]-3,6-dihydro-2H-pyridine-1-carboxylic acid dimethylamide]
15			Cc1c(NC(=O)c2ccc(C(C)(C)C)cc2)cccc1-c1ncnc2[nH]c(C3=CCOCC3)cc12 [Example 64, 4-tert-Butyl-N-{3-[6-(3,6-dihydro-2H-pyran-4-yl)-7H-pyrrolo[2,3-d]pyrimidin-4-yl]-2-methyl-phenyl}-benzamide]
9			Cc1c(NC(=O)c2ccc(C(C)(C)C)cc2)cccc1-c1ncnc2[nH]c(C3=CCC4(CC3)OCCO4)cc12 [Example 65, 4-tert-Butyl-N-{3-[6-(1,4-dioxa-spiro[4.5]dec-7-en-8-yl)-7H-pyrrolo[2,3-d]pyrimidin-4-yl]-2-methyl-phenyl}-benzamide]
12			Cc1c(NC(=O)c2ccc(C(C)(C)C)cc2)cccc1-c1ncnc2[nH]c(C3=CCC(O)CC3)cc12 (stereo not shown) [Example 66, 4-tert-Butyl-N-{3-[6 (4 hydroxy-cyclohex-1-enyl)-7H-pyrrolo[2,3-d]pyrimidin-4-yl]-2-methyl-phenyl}-benzamide]
8			Cc1c(NC(=O)c2ccc(C(C)(C)C)cc2)cccc1-c1ncnc2[nH]c(C3=CCC(N(C)C)CC3)cc12 (stereo not shown) [Example 67, 4-tert-Butyl-N-{3-[6 (4 dimethylamino-cyclohex-1-enyl)-7H-pyrrolo[2,3-d]pyrimidin-4-yl]-2-methyl-phenyl}-benzamide]

Structure (SMILES)	IC50 [1] [nM]	IC50 (Btk [2]) [nM]	IC50 (Btk [3]) [nM]
CC(C)(C)c1ccc(C(=O)Nc2cccc(-c3ncnc4[nH]c(C5=CCN(C(=O)CF)CC5)cc34)c2CO)cc1 [Example 38, 4-tert-Butyl-N-(3-{6-[1-(2 fluoro-acetyl)-1,2,3,6-tetrahydro-pyridin-4-yl]-7H-pyrrolo[2,3-d]pyrimidin-4-yl}-2-hydroxymethyl-phenyl)-benzamide]	27		20
Cc1c(NC(=O)N2CC(OC(C)(C)C)C2)cc(F)cc1-c1ncnc2[nH]c(C3=CCN(C(=O)N(C)C)CC3)cc12 [Example 57, 4-(4-{3-[(3-tert-Butoxy-azetidine-1-carbonyl)-amino]-5-fluoro-2-methyl-phenyl}-7H-pyrrolo[2,3-d]pyrimidin-6-yl)-3,6-dihydro-2H-pyridine-1-carboxylic acid dimethylamide]	7		
Cc1c(NC(=O)N2CC(OC(C)(C)C)C2)cc(F)cc1-c1ncnc2[nH]c(C3=CCOCC3)cc12 [Example 61, 3-tert-Butoxy-azetidine-1-carboxylic acid {3-[6-(3,6-dihydro-2H-pyran-4-yl)-7H-pyrrolo[2,3-d]pyrimidin-4-yl]-5-fluoro-2-methyl-phenyl}-amide]	6		
Cc1c(-c2ncnc3[nH]c(C4=CCN(C(=O)N(C)C)CC4)cc23)ccc(F)c1NC(=O)N1CC(OC(C)(C)C)C1 [Example 63, 4-(4-{3-[(3-tert-Butoxy-azetidine-1-carbonyl)-amino]-4-fluoro-2-methyl-phenyl}-7H-pyrrolo[2,3-d]pyrimidin-6-yl)-3,6-dihydro-2H-pyridine-1-carboxylic acid dimethylamide]	2		
